Values of other authors in patent US20210147810A1, “SINGLE LUNG CELL-DERIVED ORGANOIDS” (Rutgers, The State University of New Jersey, priority 2017, published 2021).

Tested on: PTPRT-mutant NSCLC
Conditions: in vivo

CC(=O)c1cc2c(o1)C(=O)c1ccccc1C2=O [BBI608]
anti-tumor activity: effective anti-tumor activity
